Experimental data from ChEMBL document CHEMBL1201862, “PubChem BioAssay data set” (2004).
The source made the active and inactive calls.

Experiments:
[1] = target: Prothrombin (Bos taurus, UniProt P00735); test: thrombin protease inhibitors – biochemical, fluorescence polarization, uHTS hits, dose response (AID 602369); assay type: functional
[2] = target: T1, Aminopeptidase N (Plasmodium falciparum FcB1/Columbia, UniProt O96935); test: malaria alanyl aminopeptidase activity blockers – biochemical, fluorogenic H-Leu-NHMec substrate, 1536-well (AID 1445); design: species or system Plasmodium falciparum 3D7, 3D7
T1 sequence (O96935 whole entry): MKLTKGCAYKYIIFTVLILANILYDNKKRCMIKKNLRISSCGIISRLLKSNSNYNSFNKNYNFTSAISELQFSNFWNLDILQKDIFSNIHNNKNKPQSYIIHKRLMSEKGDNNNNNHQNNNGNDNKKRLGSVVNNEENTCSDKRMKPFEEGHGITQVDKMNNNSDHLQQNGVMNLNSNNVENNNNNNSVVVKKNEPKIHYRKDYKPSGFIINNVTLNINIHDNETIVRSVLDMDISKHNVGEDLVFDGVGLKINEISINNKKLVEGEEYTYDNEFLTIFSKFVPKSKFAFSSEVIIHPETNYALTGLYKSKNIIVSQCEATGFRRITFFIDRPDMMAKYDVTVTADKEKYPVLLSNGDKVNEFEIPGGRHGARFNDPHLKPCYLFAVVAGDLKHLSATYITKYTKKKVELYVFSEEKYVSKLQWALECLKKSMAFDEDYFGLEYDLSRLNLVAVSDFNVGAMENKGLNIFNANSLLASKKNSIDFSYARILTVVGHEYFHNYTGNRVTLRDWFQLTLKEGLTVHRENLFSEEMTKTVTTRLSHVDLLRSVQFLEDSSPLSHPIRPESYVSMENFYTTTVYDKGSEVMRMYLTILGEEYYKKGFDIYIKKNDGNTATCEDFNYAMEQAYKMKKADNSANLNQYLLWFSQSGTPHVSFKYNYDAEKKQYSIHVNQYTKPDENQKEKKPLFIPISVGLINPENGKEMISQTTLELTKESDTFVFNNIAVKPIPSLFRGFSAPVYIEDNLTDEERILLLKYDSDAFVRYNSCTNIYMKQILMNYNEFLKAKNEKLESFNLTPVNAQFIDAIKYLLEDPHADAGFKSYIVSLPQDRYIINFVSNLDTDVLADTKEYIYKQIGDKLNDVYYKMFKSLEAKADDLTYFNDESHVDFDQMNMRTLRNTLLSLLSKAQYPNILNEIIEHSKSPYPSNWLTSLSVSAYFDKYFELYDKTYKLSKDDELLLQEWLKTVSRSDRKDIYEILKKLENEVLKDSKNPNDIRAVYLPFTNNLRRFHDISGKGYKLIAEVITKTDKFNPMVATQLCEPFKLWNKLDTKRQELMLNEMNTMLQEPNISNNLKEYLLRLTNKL

[3] = target: 26S proteasome non-ATPase regulatory subunit 14 (Homo sapiens, UniProt O00487); test: inhibition of proteasome subunit RPN11 – biochemical, fluorescence polarization, uHTS hits, confirmation (AID 602368); assay type: functional
[4] = target: 72 kDa type IV collagenase (Homo sapiens, UniProt P08253); test: Dose Response validation of uHTS RPN11 inhibitor hits using a MMP-2 Fluorescence assay.; assay type: functional
[5] = target: Cytochrome P450 2D6 (Homo sapiens, UniProt P10635);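 further: CYP2D6 member of a cytochrome P450 panel assay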
[6] = target: T2, Fatty acid synthase (Homo sapiens, UniProt P49327); test: inhibition of human FAS-TE enzyme activity – biochemical, endpoint fluorescence intensity, uHTS hits, dose response (AID 624327); assay type: functional;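 further: fluorescence from hydrolysis of an O-methyl fluorescein acyl ester substrate by the enzyme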
[7] = target: Multidrug resistance protein CDR1 (Candida albicans, UniProt P43071); test: inhibition of Nile Red efflux via Candida CDR1 – S. cerevisiae AD1-8u, singleplex, Cherry Pick1 hits, dose response (AID 588606); assay type: functional
[8] = target: T2, Fatty acid synthase; test: inhibition of human FAS-TE enzyme activity – biochemical, kinetic fluorescence intensity, dose response (AID 624326); assay type: functional;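 further: rate of fluorescence rise from hydrolysis of a fluorogenic O-methyl fluorescein ester substrate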
[9] = target: Luciferin 4-monooxygenase (Photinus pyralis, UniProt P08659); test: inhibition of purified Photinus pyralis luciferase – biochemical, luminescence, dose response (AID 1891)
[10] = system: BJ; test: BJ-TERT fibroblast viability loss – cell-based, RAS-independent, luminescence, dose response (AID 1933); assay type: functional; details: Homo sapiens
[11] = cells
[12] = blockade of melanocortin 4 receptor signaling – cell-based, plate reader, cherry pick, counter-screen for LGR2 antagonist project, dose response (AID 743444); assay type: functional;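 further: transfected HEK 293 cells stimulated with alpha-MSH peptide; potency of inhibitors of the alpha-MSH evoked signal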
[13] = target: T3, Orexin/Hypocretin receptor type 1 (Homo sapiens, UniProt O43613); test: Fluorescence-based cell-based high throughput dose response assay for antagonists of the orexin 1 receptor (OX1R; HCRTR1). [Related pubchem assays (depositor defined):AID434989, AID435008, AID463079, AID485270, AID492963, AID492964, AID492965, AID493232, AID504717, AID504718]; assay type: functional
[14] = A Cell Based Secondary Assay To Explore Cytotoxicity of Compounds that Sensitize Mycobacterium Tuberculosis to Beta-Lactam Antibiotics.; assay type: functional
[15] = DRD fibroblast viability loss – cell-based, non-viral oncogenic, luminescence, dose response (AID 1934); assay type: functional; details: Homo sapiens
[16] = Counterscreen for antagonists of the orexin 1 receptor (OX1R; HCRTR1): Fluorescence-based cell-based high throughput dose response assay to identify antagonists of the parental CHO cell line. [Related pubchem assays (depositor defined):AID434989, AID435008, AID463079, AID485270, AID492963, AID492964, AID492965, AID493232, AID504699, AID504701]; assay type: functional
[17] = system: BJ; test: growth inhibition of engineered Ras-driven BJ cells – cell-based, alamar blue fluorescence, cherrypicked samples, dose response (AID 2631); assay type: functional; details: Homo sapiens;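 further: confirmatory dose-response assay in RAS-dependent BJ fibroblasts engineered with TERT, LT and ST, with cytotoxicity read by fluorescence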
[18] = target: T4, Protein skinhead-1 (Caenorhabditis elegans, UniProt P34707); assay type: functional
T4 sequence (P34707 whole entry): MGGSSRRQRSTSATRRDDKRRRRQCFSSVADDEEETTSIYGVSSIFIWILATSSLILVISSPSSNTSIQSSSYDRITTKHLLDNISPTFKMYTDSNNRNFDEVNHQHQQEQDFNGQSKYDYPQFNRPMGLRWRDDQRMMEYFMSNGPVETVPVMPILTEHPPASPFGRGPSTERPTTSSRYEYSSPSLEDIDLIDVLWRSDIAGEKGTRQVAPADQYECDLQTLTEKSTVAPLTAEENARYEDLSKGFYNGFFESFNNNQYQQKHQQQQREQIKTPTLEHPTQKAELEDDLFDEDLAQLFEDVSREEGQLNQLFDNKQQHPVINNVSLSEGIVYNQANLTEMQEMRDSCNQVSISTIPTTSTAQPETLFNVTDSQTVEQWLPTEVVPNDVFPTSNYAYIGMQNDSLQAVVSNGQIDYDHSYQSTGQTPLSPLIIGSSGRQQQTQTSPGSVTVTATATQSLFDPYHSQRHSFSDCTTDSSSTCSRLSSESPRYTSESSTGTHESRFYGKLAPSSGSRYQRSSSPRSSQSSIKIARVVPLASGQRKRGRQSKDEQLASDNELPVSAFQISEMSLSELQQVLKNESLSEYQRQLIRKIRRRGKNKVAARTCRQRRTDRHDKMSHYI

[19] = target: T5, Orexin receptor type 2 (Homo sapiens, UniProt O43614); test: Counterscreen assay for antagonists of the orexin 1 receptor (OX1R; HCRTR1): Homogeneous Time Resolved Fluorescence (HTRF)-based cell-based dose response assay for antagonists of the orexin 2 receptor (OX2R; HCRTR2), run by assay provider.; assay type: functional
[20] = blockers of bursicon-stimulated LGR2 cAMP reporter – cell-based, HEK293, CRE-luciferase reporter, cherry pick, set 2, dose response (AID 743343); assay type: functional;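 further: transfected cells were stimulated with diluted bursicon conditioned medium after compound addition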
[21] = system: BJ; test: cells; assay type: functional, cell-based; details: Homo sapiens
[22] = target: T5, Orexin receptor type 2; test: Counterscreen assay for antagonists of the orexin 1 receptor (OX1R; HCRTR1): Fluorescence-based cell-based dose response assay for antagonists of the orexin 2 receptor (OX2R; HCRTR2), run by assay provider.; assay type: functional
[23] = Luminescence Cell-Based Dose Confirmation HTS to Identify Inhibitors of Platelet Dense Granule Release. [Related pubchem assays: 1663 (Primary HTS), 1678 (Summary of Project)]; assay type: functional
[24] = A549 cell cytotoxicity, dose response, cytotoxicity control, plate reader, cherry-pick, antagonist series (AID 743412); assay type: functional, cell-based
[25] = toxicity toward HepG2 liver cells – cell-based, plate reader, cherry-pick, antagonist series, cytotoxicity control, dose response (AID 743416); assay type: functional
[26] = viability loss in HEK293 cells – cell-based, plate reader, cherry-picked samples, cytotoxicity control, dose response (AID 743446); assay type: functional
[27] = target: T6, Oxysterols receptor LXR-beta (Homo sapiens, UniProt P55055); assay type: functional, cell-based;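 further: Cell-based luminescence dose-response assay of agonist activity at LXR, run as a confirmatory counterscreen to a daf-12 agonist screen; HEK293 cells with Gal4-LXR fusion and GAL4-driven luciferase reporter; agonist potency from rising luciferase signal of a Gal4-LXR reporter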
T6 sequence (P55055 whole entry): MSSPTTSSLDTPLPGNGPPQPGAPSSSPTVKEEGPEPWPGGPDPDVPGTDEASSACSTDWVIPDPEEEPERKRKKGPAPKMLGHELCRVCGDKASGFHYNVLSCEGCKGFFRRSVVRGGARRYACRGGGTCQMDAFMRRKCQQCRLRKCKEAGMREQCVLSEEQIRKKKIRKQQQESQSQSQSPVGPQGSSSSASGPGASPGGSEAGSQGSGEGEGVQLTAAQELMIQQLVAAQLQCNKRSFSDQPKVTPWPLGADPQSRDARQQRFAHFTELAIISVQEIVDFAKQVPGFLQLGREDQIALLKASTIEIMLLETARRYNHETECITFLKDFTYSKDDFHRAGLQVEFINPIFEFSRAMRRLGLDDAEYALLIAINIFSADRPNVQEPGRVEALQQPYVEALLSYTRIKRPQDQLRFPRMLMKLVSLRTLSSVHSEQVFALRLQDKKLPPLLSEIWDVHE

[28] = system: CHO-K1; test: Counterscreen for antagonists of the orexin 1 receptor (OX1R; HCRTR1): Homogeneous time resolved fluorescence (HTRF)-based cell-based dose response assay to identify antagonists of the parental CHO-K1 cell line. [Related pubchem assays (depositor defined):AID434989, AID435008, AID463079, AID485270, AID492963, AID492964, AID492965, AID493232, AID504699, AID504701]; assay type: functional; details: Cricetulus griseus;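 further: potency for inhibition of ATP-stimulated IP1 production as antagonists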
[29] = target: T3, Orexin/Hypocretin receptor type 1; test: Homogeneous Time Resolved Fluorescence (HTRF)-based cell-based high throughput dose response assay for antagonists of the orexin 1 receptor (OX1R; HCRTR1). [Related pubchem assays (depositor defined):AID434989, AID435008, AID463079, AID485270, AID492963, AID492964, AID492965, AID493232, AID504717, AID504718]; assay type: functional
[30] = system: BJ; test: BJ-TERT-LT-ST fibroblast viability loss – cell-based, RAS-independent, luminescence, dose response (AID 1935); assay type: functional; details: Homo sapiens;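 further: BJ fibroblasts immortalized with TERT plus LT and ST oncogenes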
[31] = target: Melanin-concentrating hormone receptor 1 (Homo sapiens, UniProt Q99705); test: Late-stage fluorescence-based counterscreen for antagonists of the G-protein coupled receptor 7 (GPR7): cell-based dose response assay to identify antagonists of the melanin-concentrating hormone receptor 1 (MCHR1) Set 6.; assay type: functional
[32] = target: T7, Neuropeptides B/W receptor type 1 (Homo sapiens, UniProt P48145); test: human NPBW1 receptor blockade, IC50 – cell-based, fluorescence, dose response, set 6, late-stage follow-up (AID 588583); assay type: functional
T7 sequence (P48145 whole entry): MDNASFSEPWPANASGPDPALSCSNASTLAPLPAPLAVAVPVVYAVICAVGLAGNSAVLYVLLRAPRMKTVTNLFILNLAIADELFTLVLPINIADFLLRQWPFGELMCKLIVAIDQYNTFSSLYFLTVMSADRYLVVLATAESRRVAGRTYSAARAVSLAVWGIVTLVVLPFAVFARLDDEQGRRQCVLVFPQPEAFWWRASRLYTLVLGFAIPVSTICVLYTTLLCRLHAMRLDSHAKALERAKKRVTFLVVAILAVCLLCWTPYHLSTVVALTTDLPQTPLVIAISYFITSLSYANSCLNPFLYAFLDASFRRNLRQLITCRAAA

T2 sequence (P49327 whole entry): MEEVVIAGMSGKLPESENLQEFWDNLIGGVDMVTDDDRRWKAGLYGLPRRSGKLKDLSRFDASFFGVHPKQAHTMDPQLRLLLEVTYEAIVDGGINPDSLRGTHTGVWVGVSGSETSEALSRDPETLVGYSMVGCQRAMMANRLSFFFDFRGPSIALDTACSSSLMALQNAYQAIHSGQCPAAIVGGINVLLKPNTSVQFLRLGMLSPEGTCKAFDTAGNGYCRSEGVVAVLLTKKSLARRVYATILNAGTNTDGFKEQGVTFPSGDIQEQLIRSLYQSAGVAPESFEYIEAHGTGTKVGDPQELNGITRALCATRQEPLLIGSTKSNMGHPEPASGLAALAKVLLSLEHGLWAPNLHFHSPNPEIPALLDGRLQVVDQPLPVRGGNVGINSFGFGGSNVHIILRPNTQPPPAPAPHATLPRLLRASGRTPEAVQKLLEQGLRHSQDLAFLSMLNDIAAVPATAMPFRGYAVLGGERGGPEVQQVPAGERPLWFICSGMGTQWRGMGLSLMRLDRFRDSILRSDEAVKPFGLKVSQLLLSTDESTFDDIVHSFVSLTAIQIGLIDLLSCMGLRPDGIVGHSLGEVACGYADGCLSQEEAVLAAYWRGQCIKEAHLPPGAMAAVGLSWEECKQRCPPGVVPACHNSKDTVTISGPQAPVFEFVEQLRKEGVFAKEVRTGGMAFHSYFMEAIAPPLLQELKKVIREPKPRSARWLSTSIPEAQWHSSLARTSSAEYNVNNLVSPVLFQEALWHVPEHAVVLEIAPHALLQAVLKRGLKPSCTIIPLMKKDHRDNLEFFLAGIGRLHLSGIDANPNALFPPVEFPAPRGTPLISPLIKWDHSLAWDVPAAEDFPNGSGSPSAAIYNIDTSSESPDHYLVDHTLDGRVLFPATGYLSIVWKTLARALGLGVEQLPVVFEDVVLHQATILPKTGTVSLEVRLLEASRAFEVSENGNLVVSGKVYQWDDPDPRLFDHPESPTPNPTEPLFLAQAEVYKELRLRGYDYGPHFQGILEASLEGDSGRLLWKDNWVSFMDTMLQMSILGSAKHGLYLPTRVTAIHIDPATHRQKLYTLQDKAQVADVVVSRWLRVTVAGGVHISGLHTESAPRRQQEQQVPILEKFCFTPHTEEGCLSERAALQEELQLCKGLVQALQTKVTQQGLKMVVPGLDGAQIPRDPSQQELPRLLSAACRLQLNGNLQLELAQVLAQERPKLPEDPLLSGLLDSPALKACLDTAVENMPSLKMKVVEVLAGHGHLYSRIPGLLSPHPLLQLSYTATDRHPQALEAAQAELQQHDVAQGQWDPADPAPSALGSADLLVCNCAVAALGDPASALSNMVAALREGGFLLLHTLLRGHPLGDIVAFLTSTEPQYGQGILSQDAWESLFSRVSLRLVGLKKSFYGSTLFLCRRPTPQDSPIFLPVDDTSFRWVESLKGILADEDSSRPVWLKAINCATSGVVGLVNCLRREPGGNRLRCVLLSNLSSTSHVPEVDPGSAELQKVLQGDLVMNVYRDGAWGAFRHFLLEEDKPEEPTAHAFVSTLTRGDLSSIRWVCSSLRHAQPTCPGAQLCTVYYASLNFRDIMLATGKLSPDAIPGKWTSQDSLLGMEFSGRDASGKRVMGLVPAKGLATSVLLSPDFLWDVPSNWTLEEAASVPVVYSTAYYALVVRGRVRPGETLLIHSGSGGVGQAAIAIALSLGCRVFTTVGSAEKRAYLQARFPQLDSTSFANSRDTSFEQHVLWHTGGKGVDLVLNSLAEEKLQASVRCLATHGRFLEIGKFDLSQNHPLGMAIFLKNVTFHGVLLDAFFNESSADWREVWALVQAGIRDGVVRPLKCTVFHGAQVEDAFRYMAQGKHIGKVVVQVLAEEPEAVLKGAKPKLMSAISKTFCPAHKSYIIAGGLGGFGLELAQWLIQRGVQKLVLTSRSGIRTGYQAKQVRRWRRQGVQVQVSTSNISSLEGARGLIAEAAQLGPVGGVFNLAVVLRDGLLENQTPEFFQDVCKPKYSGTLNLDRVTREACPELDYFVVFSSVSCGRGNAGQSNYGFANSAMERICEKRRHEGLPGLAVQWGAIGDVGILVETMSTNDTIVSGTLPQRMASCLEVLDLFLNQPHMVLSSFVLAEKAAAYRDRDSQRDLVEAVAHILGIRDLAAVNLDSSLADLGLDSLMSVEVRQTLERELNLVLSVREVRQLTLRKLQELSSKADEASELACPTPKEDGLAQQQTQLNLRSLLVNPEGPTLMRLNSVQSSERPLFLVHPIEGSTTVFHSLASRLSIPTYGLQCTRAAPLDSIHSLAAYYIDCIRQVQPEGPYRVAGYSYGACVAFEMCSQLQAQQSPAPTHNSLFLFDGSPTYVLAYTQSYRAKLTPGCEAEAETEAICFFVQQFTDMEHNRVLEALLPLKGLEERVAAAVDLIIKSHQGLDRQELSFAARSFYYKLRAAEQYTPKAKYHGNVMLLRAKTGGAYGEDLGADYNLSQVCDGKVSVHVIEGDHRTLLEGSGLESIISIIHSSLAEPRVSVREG
T5 sequence (O43614 whole entry): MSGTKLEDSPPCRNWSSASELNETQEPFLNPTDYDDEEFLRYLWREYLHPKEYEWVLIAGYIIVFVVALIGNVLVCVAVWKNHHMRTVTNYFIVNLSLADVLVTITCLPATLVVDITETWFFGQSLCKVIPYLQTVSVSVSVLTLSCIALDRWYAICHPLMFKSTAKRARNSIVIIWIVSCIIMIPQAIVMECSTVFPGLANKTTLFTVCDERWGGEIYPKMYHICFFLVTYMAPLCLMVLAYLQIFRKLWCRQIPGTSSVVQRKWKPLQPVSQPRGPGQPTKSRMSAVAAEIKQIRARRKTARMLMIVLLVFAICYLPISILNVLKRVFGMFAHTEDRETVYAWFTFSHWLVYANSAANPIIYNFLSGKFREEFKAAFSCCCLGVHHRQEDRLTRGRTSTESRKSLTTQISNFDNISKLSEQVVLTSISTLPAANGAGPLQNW
T3 sequence (O43613 whole entry): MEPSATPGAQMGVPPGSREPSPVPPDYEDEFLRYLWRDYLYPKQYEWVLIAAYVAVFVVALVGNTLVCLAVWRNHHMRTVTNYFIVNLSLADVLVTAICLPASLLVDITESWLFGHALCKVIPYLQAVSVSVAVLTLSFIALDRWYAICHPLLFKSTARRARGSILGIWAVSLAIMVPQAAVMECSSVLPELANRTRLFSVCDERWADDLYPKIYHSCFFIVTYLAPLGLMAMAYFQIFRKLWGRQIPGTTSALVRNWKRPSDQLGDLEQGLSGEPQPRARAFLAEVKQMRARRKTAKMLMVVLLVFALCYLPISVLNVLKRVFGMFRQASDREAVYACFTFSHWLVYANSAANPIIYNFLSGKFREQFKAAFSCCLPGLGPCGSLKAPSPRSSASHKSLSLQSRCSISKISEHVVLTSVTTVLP
26S proteasome non-ATPase regulatory subunit 14, sequence (O00487 whole entry): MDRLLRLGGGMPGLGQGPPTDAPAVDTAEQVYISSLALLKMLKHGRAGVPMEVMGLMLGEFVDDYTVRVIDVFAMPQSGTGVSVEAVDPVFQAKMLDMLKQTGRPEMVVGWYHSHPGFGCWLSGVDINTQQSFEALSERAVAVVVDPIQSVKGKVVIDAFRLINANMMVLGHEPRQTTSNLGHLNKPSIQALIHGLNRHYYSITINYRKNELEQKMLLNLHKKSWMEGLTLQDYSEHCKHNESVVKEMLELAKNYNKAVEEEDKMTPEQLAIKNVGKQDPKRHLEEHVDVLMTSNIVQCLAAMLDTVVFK
72 kDa type IV collagenase, sequence (P08253 whole entry): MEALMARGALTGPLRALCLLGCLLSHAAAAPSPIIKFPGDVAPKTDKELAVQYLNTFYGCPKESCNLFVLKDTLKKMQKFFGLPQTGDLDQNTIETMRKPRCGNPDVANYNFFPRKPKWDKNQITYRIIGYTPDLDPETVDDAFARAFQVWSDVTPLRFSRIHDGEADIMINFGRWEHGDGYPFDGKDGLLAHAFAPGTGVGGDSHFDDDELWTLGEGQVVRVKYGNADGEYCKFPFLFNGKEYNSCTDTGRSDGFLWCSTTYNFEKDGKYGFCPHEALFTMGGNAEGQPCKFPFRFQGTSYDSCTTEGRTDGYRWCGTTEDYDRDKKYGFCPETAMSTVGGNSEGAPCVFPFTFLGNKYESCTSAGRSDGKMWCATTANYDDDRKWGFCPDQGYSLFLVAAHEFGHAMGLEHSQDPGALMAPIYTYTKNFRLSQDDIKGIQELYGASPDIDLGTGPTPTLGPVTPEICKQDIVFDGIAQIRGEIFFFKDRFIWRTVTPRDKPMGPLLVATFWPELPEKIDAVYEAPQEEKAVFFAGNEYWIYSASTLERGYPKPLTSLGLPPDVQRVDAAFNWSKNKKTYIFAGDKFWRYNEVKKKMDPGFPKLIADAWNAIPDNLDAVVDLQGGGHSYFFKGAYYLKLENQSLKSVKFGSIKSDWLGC
Melanin-concentrating hormone receptor 1, sequence (Q99705 whole entry): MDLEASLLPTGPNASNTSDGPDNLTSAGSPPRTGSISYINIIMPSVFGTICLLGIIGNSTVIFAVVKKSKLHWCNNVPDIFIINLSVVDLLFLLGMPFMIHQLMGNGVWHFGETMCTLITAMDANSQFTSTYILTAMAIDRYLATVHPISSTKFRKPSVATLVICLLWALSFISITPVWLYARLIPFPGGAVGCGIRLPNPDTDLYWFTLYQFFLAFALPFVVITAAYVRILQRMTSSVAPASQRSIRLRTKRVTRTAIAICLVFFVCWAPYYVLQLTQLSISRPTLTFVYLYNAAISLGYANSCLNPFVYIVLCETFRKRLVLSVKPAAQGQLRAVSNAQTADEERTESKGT

SMILES: N#Cc1c(O)nc(SCC(=O)c2cccs2)nc1-c1cccs1
- IC50 [1]: 47.8 µM (active)
- IC50 [2]: 24.1 µM (active)
- IC50 [3]: 37.2 µM (active)
- IC50 [4]: > 100 µM (inactive)
- AC50 [5]: inconclusive

SMILES: COc1ccc(NC(=O)Nc2cccc3c2O[C@H](CN(C)C(=O)NC2CCCCC2)[C@@H](C)CN([C@H](C)CO)C3=O)cc1
- IC50 [6]: 3.56 µM (active)
- EC50 [7]: 8.86 µM (active)
- IC50 [8]: 3.35 µM (active)

SMILES: c1ccc2nc(-c3nc4ccccc4o3)ccc2c1
- EC50 [9]: 1.36 µM (active)
- EC50 [10]: 10.5 µM (active)
- EC50 [11]: > 67.5 µM (inactive)
- AC50 [12]: 2.72 µM (active)
- IC50 [13]: 5.46 µM (active)
- CC50 [14]: > 40 µM (active)
- EC50 [15]: 7.36 µM (active)
- IC50 [16]: > 49.8 µM (inactive)
- EC50 [17]: > 133 µM (inactive)
- IC50 [18]: 9.69 µM (active)
- IC50 [19]: 0.006 µM (active)
- AC50 [20]: 3.53 µM (active)
- EC50 [21]: 8.74 µM (active)
- IC50 [22]: 41.7 µM (inactive)
- EC50 [23]: 4.38 µM (active)
- AC50 [24]: 22.5 µM (active)
- AC50 [25]: > 52 µM (inactive)
- AC50 [26]: 11.1 µM (active)
- EC50 [27]: > 67.5 µM (inactive)
- IC50 [28]: > 66.2 µM (inactive)
- IC50 [29]: 0.954 µM (active)
- EC50 [30]: > 150 µM (inconclusive)

SMILES: N#CC(c1ccccc1)c1c(Cl)cnn(C2c3ccccc3-c3ccccc32)c1=O (configuration not stated)
- IC50 [31]: 2.22 µM (active)
- IC50 [32]: 2.22 µM (active)
